According to patent publication US11173192B2 (priority 2016, dated 2021):

Experiments:
PR8 = type: cell-based, PR8 influenza A virus
[1] = test system: PR8-infected RAW264.7 cells; type: cell-based; conditions: RAW264.7 cells stably overexpressing EPRS vs empty vector

EPRS: glutamyl-prolyl-tRNA synthetase protein, 1512 aa, SEQ ID NO: 63; expressed from plasmid or purified
viral replication following infection with PR8 (PR8): significantly less viral replication
IFN-β production following infection with PR8 [1]: more production of IFN-β and IL-6
IL-6 production following infection with PR8 [1]: more production of IFN-β and IL-6
